The NIST ThermoML archive (doi:10.1021/je3013205)

Experiments:
[1] = xn = mol fraction of the nth substance listed; conditions: 101 kPa, Liquid, Vibrating tube method
[2] = 101 kPa, Liquid, Vibrating tube method

NCCO [2-aminoethan-1-ol] + OCCO
mass density [kg/m3], [1]
Conditions | x2 = 0 | x2 = 0.1002 | x2 = 0.2 | x2 = 0.2998 | x2 = 0.3999 | x2 = 0.5001 | x2 = 0.5999 | x2 = 0.7 | x2 = 0.8002 | x2 = 0.8999
283.15 K | 1024.11 | 1035.45 | 1046.35 | 1056.77 | 1066.86 | 1076.47 | 1085.82 | 1094.87 | 1103.84 | 1112.47
293.15 K | 1016.23 | 1027.68 | 1038.7 | 1049.24 | 1059.48 | 1069.16 | 1078.59 | 1087.73 | 1096.76 | 1105.44
303.15 K | 1008.32 | 1019.88 | 1031.01 | 1041.67 | 1052.04 | 1061.82 | 1071.33 | 1080.56 | 1089.64 | 1098.37
313.15 K | 1000.37 | 1012.03 | 1023.26 | 1034.05 | 1044.53 | 1054.42 | 1064.02 | 1073.32 | 1082.46 | 1091.24
323.15 K | 992.364 | 1004.13 | 1015.46 | 1026.35 | 1036.96 | 1046.93 | 1056.62 | 1066.01 | 1075.21 | 1084.05
333.15 K | 984.301 | 996.181 | 1007.58 | 1018.58 | 1029.3 | 1039.37 | 1049.14 | 1058.6 | 1067.87 | 1076.77
343.15 K | 976.153 | 988.118 | 999.618 | 1010.71 | 1021.54 | 1031.7 | 1041.55 | 1051.09 | 1060.42 | 1069.37

CO [methanol]
[2]
Conditions | mass density [kg/m3]
283.15 K | 801.254
293.15 K | 791.866
303.15 K | 782.43
313.15 K | 772.902
323.15 K | 763.244
333.15 K | 753.389

CO [methanol] + NCCO
[1], x1 = 1
Conditions | mass density [kg/m3]
283.15 K | 801.254
293.15 K | 791.866
303.15 K | 782.43
313.15 K | 772.902
323.15 K | 763.244
333.15 K | 753.389

CO [methanol] + NCCOCCO
[1], x1 = 1
Conditions | mass density [kg/m3]
283.15 K | 801.254
293.15 K | 791.866
303.15 K | 782.43
313.15 K | 772.902
323.15 K | 763.244
333.15 K | 753.389

CC(C)O [propan-2-ol]
[2]
Conditions | mass density [kg/m3]
283.15 K | 794.005
293.15 K | 785.764
303.15 K | 777.284
313.15 K | 768.476
323.15 K | 759.309
333.15 K | 749.679
343.15 K | 739.528

CC(C)O [propan-2-ol] + NCCO
[1], x1 = 1
Conditions | mass density [kg/m3]
283.15 K | 794.005
293.15 K | 785.764
303.15 K | 777.284
313.15 K | 768.476
323.15 K | 759.309
333.15 K | 749.679
343.15 K | 739.528

CC(C)O [propan-2-ol] + NCCOCCO
[1], x1 = 1
Conditions | mass density [kg/m3]
283.15 K | 794.005
293.15 K | 785.764
303.15 K | 777.284
313.15 K | 768.476
323.15 K | 759.309
333.15 K | 749.679
343.15 K | 739.528
